Measured values as given in patent US8193228B2, “Substituted imidazole as bombesin receptor subtype-3 modulators” (Merck Sharp & Dohme Corp., priority 2006, dated 2012).
Read-outs that look alike come from different tables or passages of the source.

Target: T1, human BRS-3 (Homo sapiens, UniProt P32247)
T1 construct: expressed in transfected cells
T1 sequence (P32247 1-399): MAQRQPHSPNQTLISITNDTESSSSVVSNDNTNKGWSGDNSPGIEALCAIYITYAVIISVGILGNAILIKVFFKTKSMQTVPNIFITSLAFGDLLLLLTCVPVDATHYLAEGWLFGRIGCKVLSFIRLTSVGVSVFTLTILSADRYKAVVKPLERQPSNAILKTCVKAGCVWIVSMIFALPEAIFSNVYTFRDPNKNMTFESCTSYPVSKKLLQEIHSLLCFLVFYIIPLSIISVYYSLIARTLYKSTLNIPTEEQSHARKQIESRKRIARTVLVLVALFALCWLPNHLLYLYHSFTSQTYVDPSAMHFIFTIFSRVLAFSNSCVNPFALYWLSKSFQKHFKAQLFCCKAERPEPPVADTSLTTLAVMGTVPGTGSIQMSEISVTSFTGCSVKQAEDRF
Experiment: BRS-3 receptor binding assay (radioligand filtration)
Method: Dissociated cells were collected by centrifuging at 1000 rpm for 10 minutes. Cell pellets were resuspended and homogenized at 4° C. using a Polytron homogenizer (setting 40, 20 stokes) in approximately 10 mL membrane preparation buffer (10 mM Tris pH 7.4, 0.01 mM Pefabloc, 10 μM phosphoramidon and 40 μg/mL Bacitracin) per T175 flask. After centrifugation at 2200 rpm (1000×g) for 10 minutes at 4° C., the supernatant was transferred to a clean centrifuge tube and spun at 18,000 rpm (38,742×g) for 15 minutes. at 4° C.
The filters were washed five times with ice-cold washing buffer (1×PBS without Mg^++ and Ca^++). The radioactivity was determined by adding 30 μl of microscintillant/well after each plate was dried at room temperature overnight or placed at 50° C. for 1 hr.
The radioligand, [^3H]-1-{4-[(4,5-difluoro-2-hydroxycarbonylphenyl)phenyl]}-2-(4-cyclohexylmethyl-1H-imidazol-2-yl)ethane, was used for binding to receptor membranes generated with BRS3 from other species and was also utilized for the human receptor. […] After incubation for 1-2 hours at room temperature, membrane bound [^3H]-biphenyl was separated from free radiologand by filtering through GF/C filters presoaked in 1% PEI solution. The filters were washed five times with ice-cold washing buffer (50 mM Tris pH 7.4, 10 mM MgCl2, 2.5 mM EDTA and 0.02% Triton X-100). The radioactivity was determined by adding 30 μl of microscintillant/well after each plate was dried at room temperature overnight or placed at 50° C. for 1 hr.
A Packard Top Count was used to read the filter plates. The data in % inhibition of binding was plotted vs. the log molar concentration of receptor ligand (compound). The IC50 was reported as the inflection point of the resulting sigmoidal curve.

[1] = selected compounds; read-out: BRS-3 binding IC50

SMILES	IC50 [1] [nM]	IC50 (read-out: BRS-3 binding IC50; selected compounds) [nM]
CC(C)(C)Cc1c[nH]c(CC(O)(c2ccc(-c3ccc(F)cn3)cc2)C(F)(F)F)n1 (stereo not drawn) [Example 1, 3-[4-(2,2-dimethylpropyl)-1H-imidazol-2-yl]-1,1,1-trifluoro-2-[4-(5-fluoropyridin-2-yl)phenyl]propan-2-ol]	18	–
CC(C)(C)Cc1c[nH]c(CC(O)(c2ccc(-c3ccc(F)cn3)cc2)C(F)F)n1 (stereo not drawn) [Example 40, 3-[4-(2,2-dimethylpropyl)-1H-imidazol-2-yl]-1,1-difluoro-2-[4-(5-fluoropyridin-2-yl)phenyl]propan-2-ol]	15	–
OC(Cc1nc(CC2(C(F)(F)F)CC2)c[nH]1)(c1ccc(-c2ccc(F)cn2)cc1)C(F)F (stereo not drawn) [Example 45, 1,1-difluoro-2-[4-(5-fluoropyridin-2-yl)phenyl]-3-(4-{[1-(trifluoromethyl)cyclopropyl]methyl}-1H-imidazol-2-yl)propan-2-ol]	71	–
O[C@@](Cc1nc(CC2(C(F)(F)F)CC2)c[nH]1)(c1ccc(-n2cccn2)cc1)C(F)(F)F [Example 31a, (2S)-1,1,1-trifluoro-2-[4-(1H-pyrazol-1-yl)phenyl]-3-(4-{[1-(trifluoromethyl)cyclopropyl]methyl}-1H-imidazol-2-yl)propan-2-ol]	–	36
CC(C)(C)Cc1c[nH]c(CC(C)(O)c2ccc(-c3ccc(F)cn3)cc2)n1 (stereo not drawn) [Example 4, 1-[4-(2,2-dimethylpropyl)-1H-imidazol-2-yl]-2-[4-(5-fluoropyridin-2-yl)phenyl]propan-2-ol]	19	–

Next, values leading:

IC50 [1] [nM]	IC50 (read-out: BRS-3 binding IC50; selected compounds) [nM]	SMILES
54	–	CC(O)(Cc1nc(CC2(C(F)(F)F)CC2)c[nH]1)c1ccc(-c2ccc(F)cn2)cc1 (stereo not drawn) [Example 49, 2-[4-(5-fluoropyridin-2-yl)phenyl]-1-(4-{[1-(trifluoromethyl)cyclopropyl]methyl}-1H-imidazol-2-yl)propan-2-ol]
23	–	CC(C)(C)Cc1c[nH]c(CC(C)(O)c2ccc(-n3cccn3)cc2)n1 (stereo not drawn) [Example 60, 1-[4-(2,2-dimethylpropyl)-1H-imidazol-2-yl]-2-[4-(1H-pyrazol-1-yl)phenyl]propan-2-ol]
56	–	OC(Cc1nc(CC2(C(F)(F)F)CC2)c[nH]1)(c1ccc(-c2ccc(F)cn2)cc1)C(F)(F)F (single isomer, unassigned) [Example 55, 1,1,1-trifluoro-2-[4-(5-fluoropyridin-2-yl)phenyl]-3-(4-{[1-(trifluoromethyl)cyclopropyl]methyl}-1H-imidazol-2-yl)propan-2-ol]
19	–	CC(O)(Cc1nc(CC2(C(F)(F)F)CC2)c[nH]1)c1ccc(-n2cccn2)cc1 (stereo not drawn) [Example 52, 2-[4-(1H-pyrazol-1-yl)phenyl]-1-(4-{[1-(trifluoromethyl)cyclopropyl]methyl}-1H-imidazol-2-yl)propan-2-ol]
12	–	OC(Cc1nc(CC2(C(F)(F)F)CC2)c[nH]1)(c1ccc(-n2cccn2)cc1)C(F)F (single isomer, unassigned) [Example 72, 1,1-difluoro-2-[4-(1H-pyrazol-1-yl)phenyl]-3-(4-{[1-(trifluoro-methyl)cyclopropyl]methyl}-1H-imidazol-2-yl)propan-2-ol]
17	–	CC(C)(C)Cc1c[nH]c(CC(O)(c2ccc(-n3cccn3)cc2)C(F)(F)F)n1 (stereo not drawn) [Example 78, 3-[4-(2,2-dimethylpropyl)-1H-imidazol-2-yl]-1,1,1-trifluoro-2-[4-(1H-pyrazol-1-yl)phenyl]propan-2-ol]
11	–	CC(C)(C)Cc1c[nH]c(CC(O)(c2ccc(-n3cccn3)cc2)C(F)F)n1 (stereo not drawn) [Example 75, 3-[4-(2,2-dimethylpropyl)-1H-imidazol-2-yl]-1,1-difluoro-2-[4-(1H-pyrazol-1-yl)phenyl]propan-2-ol]
